This experiment addresses T1, hOAT3 (Homo sapiens, UniProt Q8TCC7).
T1 sequence (Q8TCC7 1-542): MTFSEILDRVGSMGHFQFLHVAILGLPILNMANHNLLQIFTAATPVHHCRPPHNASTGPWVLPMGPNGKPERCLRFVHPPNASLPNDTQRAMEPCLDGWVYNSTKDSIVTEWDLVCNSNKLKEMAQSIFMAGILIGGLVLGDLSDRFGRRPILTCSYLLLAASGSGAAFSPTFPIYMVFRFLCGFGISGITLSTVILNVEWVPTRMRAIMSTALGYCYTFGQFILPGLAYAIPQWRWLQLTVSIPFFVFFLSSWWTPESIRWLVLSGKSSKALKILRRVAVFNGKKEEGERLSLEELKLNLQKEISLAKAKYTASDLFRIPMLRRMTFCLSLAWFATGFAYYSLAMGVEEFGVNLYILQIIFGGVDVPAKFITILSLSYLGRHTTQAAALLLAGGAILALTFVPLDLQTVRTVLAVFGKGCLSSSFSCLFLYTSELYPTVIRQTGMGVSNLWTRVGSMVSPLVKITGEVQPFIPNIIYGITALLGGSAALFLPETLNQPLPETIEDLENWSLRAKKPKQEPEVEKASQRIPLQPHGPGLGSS
The experiment in a line: Substrates uptake assay, S2-OAT3 cells (3H-ES). In kind it is in vitro ADME. To be noted: for Transport activity of OAT3 (main text: percentage inhibition): negative control = 100%. An excerpt:
Drug transporters mediate the cellular uptake and efflux of their substrates. Therefore, cell lines overexpressing a drug transporter can be utilized to investigate inhibitors of the transporter by assessing changes in substrate uptake. For each drug transporter, we selected a well-characterized inhibitor as the positive control. Radiolabeled substrates were used to indicate the decrease in transport efficiency when the drug transporters were inhibited by PDQ or the control inhibitors.
The concentrations of the control drugs and the substrates were stated in the assay details. Working solutions of the control inhibitors, the radiolabeled substrates, and each dose of PDQ were prepared at 200 times (200×) more concentrated solutions with DMSO for further dilution.
Transporter-overexpressed cell lines. Human organic anion transporter-overexpressed cell lines MDCKII-OAT1 and S2-OAT3, human organic anion transport polypeptide-overexpressed cell lines HEK293A-OATP1B1 and HEK293A-OATP1B3, human organic cation transporter 2-overexpressed cell line S2-OCT2, and human multi-drug resistance protein MDR1 (or P-gp)-overexpressed cell line MDCKII-MDR1 were gifts from Japan Fuji Biomedical Co., Ltd. (Fuji, Shizuoka Prefecture, Japan). Breast cancer resistance protein-overexpressed vesicles (sf9-BCRP vesicle) were purchased from GenoMembrane Co., Ltd. (Yokohama, Kanagawa, Japan).
Substrates uptake assay. In this assay, we studied the inhibition of PDQ against transporters OAT1, OAT3, OCT2, OATP1B1 and OATP1B3 with MDCKII-OAT1, S2-OAT3, S2-OCT2, HEK293A-OATP1B1and HEK293A-OATP1B3 cells, respectively. The radiolabeled substrates for OAT1, OAT3, OATP1B1, OATP1B3 and OCT2 were […], respectively (Table 5). Probenecid ([…]) was the positive control inhibitor of OAT1 and OAT3, while rifampicin ([…]) served as the control drug of OATP1B1 and OATP1B3. For OCT2, we used […] cimetidine to compare with the inhibitory effect of PDQ. Two times (2×) more concentrated working solutions of the drugs and the substrate were prepared with Dulbecco’s phosphate-buffered saline (DPBS, Gibco, Grand Island, NY, USA.). Then, an equal volume of 2× drug solution and 2× radiolabeled substrate solution were mixed as the working mix. All reagents were pre-warmed to 37 °C.
The cells were digested with 0.05% trypsin/EDTA. The density of the single-cell suspension was adjusted to 2.0 × 10^5 cells/mL for S2 cells and to 1.5 × 10^5 cells/mL for MDCK II and HEK293A cells. The cell suspension was then added to the reservoirs of the 24-well plate for culture until full confluency. The medium in the wells was removed, and the wells were washed with DPBS. Then, the plate was incubated for 10 min with pre-warmed DPBS in the wells. After removing DPBS, […] of working mix was added to each well to initiate the substrate uptake process. The reaction time was 5 min for S2-OCT2 cells, while the other four types of cells were incubated with the reaction mix for 2 min. Cold DPBS was used to terminate the substrate transportation. To each well, […] NaOH ([…]) was added to lyse the cells. Then, […] cell lysate was transferred to the counting vials, and 3 mL scintillation cocktail (Aquasol-2, PerkinElmer, Waltham, MA, USA) was added. […] Each sample was replicated three times (N = 3).
In = [100 × (U − U0)/(Uc − U0)]%(3)
The results were expressed as mean ± standard deviation (SD) and analyzed with GraphPad Prism 8.0 software (CA, USA). The IC50 of PDQ was curve-fitted with the FORECAST function. Statistical significance was calculated using a two-tailed test, and a p value < 0.05 was considered as significant.

Turning to `CC(C)(O)[C@@H]1CC[C@@](C)([C@H]2CC[C@]3(C)[C@@H]2[C@H](O)C[C@@H]2[C@@]4(C)CC[C@H](O)C(C)(C)[C@@H]4CC[C@]23C)O1` [PDQ, (20S,24S)-dammar-20,24-epoxy-3β, 12β, 25-triol], the “DPM (3H-ES uptake by OAT3)” value runs as follows: (inhibitor 0.1 μM) 7893.7±359.2 DPM; (inhibitor 0.3 μM) 7623.7±652.1 DPM; (inhibitor 1 μM) 7285.3±273.2 DPM; (inhibitor 3 μM) 7192.7±157.6 DPM; (inhibitor 10 μM) 4919.0±360.3 DPM; (inhibitor 30 μM) 4541.3±532.8 DPM. The “Transport activity of OAT3 (main text: percentage inhibition)” value reads like this: (inhibitor 0.1 μM) 99.5±4.5%; (inhibitor 0.3 μM) 96.1±8.2%; (inhibitor 1 μM) 91.8±3.4%; (inhibitor 3 μM) 90.6±2.0%; (inhibitor 10 μM) 62.0±4.5%.

(Values after article PMC11173382, “In Vitro Investigations into the Potential Drug Interactions of Pseudoginsenoside DQ Mediated by Cytochrome P450 and Human Drug Transporters” (Molecules, 2024).)
